{"source": "paper PMC6245188", "about": "“Isolation and Characterization of Phenolic Compounds from the Leaves of Salix matsudana” (Molecules, 2008)", "key": {"[1]": {"target": "T1, COX-2 (Homo sapiens, UniProt P35354)", "T1 construct": "purchased Cayman Chemical (Michigan, US)", "T1 sequence (P35354 18-604)": "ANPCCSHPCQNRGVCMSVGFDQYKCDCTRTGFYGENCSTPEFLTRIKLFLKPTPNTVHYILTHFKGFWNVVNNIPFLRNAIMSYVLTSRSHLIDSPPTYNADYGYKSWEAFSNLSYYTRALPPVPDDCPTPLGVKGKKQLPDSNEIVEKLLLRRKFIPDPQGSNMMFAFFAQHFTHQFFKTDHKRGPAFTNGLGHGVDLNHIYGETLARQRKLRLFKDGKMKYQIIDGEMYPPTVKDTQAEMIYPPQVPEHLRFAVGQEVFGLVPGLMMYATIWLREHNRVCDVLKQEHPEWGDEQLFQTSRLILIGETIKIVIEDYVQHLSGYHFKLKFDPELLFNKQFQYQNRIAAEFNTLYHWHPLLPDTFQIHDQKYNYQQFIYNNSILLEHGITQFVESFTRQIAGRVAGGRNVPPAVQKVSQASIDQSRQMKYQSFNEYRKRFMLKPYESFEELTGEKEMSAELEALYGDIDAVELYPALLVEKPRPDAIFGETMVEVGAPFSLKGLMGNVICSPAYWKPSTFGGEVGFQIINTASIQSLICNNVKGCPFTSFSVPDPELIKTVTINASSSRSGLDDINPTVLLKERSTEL", "assay": "Effect on cyclooxygenase-2 (PGE2 production from 14C-arachidonic acid, HPLC radioactivity detection)", "format": "biochemical", "conditions": "for pIC50 / IC50 of COX-2: means of three determinations, 30 min at 37 °C, Tris-HCl pH 8.0, I.A. = Inactive; for inhibitory effect on COX-2 (in words): qualitative statement", "procedure": "(§1) COX-1 and COX-2 were purchased from Cayman Chemical (Michigan, US). The ^14C-labeled arachidonic acid (>200 µCi, NEN) was purchased from New England Nuclear Co. (Boston, US). Other chemicals and reagents were purchased from the Chinese Chemical Group (Beijing, P.R. China).\n(§2) The effect of the tested compounds on cyclooxygenase-1 and -2 (COX-1 and -2) was determined by measuring PGE2 production. […] 1-^14C Arachidonic acid (10 µL) was added to start the reaction. The mixture was incubated for 30 min at 37 °C, then, the reaction was terminated by adding the reaction mixture (20 µL) to 30 µM indomethacin (200 µL). Arachidonic acid and its radio-labeled metabolites were separated and determined by reversed-phase HPLC using a Berthold radioactivity monitor. Inhibition refers to reduction of PGE2 formation, in comparison to a blank run without inhibitor. The results are means of three independent experiments."}, "[2]": {"target": "T2, COX-1 (Ovis aries, UniProt P05979)", "T2 construct": "purchased Cayman Chemical (Michigan, US)", "T2 sequence (P05979 25-600)": "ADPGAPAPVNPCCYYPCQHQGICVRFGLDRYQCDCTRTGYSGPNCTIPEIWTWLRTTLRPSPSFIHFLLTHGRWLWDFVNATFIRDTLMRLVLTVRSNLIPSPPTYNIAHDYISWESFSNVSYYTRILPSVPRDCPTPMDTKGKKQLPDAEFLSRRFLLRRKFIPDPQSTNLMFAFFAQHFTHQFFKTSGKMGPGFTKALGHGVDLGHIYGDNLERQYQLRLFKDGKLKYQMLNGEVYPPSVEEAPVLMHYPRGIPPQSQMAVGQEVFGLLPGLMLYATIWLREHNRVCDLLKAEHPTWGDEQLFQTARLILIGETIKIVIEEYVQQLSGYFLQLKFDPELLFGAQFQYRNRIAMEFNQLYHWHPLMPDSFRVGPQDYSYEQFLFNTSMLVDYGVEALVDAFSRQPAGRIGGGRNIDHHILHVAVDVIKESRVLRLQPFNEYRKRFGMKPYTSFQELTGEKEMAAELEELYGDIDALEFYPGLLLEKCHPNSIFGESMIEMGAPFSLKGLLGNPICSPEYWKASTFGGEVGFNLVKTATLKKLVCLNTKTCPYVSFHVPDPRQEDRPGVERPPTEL", "assay": "Effect on cyclooxygenase-1 (PGE2 production from 14C-arachidonic acid, HPLC radioactivity detection)", "format": "biochemical", "procedure": "as §1, §2"}, "[3]": {"conditions": "means of three determinations, 30 min at 37 °C, Tris-HCl pH 8.0, I.A. = Inactive, read-out: IC50 of COX-1"}, "[4]": {"conditions": "means of three determinations, 30 min at 37 °C, Tris-HCl pH 8.0, I.A. = Inactive"}}, "note": "pIC50: −log10 of the molar value. Like-named read-outs stand apart in the source and are kept apart here.", "data": [{"smiles": "CC1(C)C=Cc2c(cc(O)c3c(=O)c(OC4OC(CO)C(O)C(O)C4O)c(-c4ccc(O)c(O)c4)oc23)O1", "note": "[Compound 1, 7,8-(2'', 2''-dimethylpyrano)-5, 3', 4'-trihydroxy-flavone-3-O-β-D-glucoside]", "values": [{"measurement": "pIC50", "setting": "[1]", "value": 4.56}, {"measurement": "inhibitory effect on COX-2 (in words)", "setting": "[1]", "value": "potent inhibitory effect"}, {"measurement": "pIC50", "setting": "[2]; [3]", "value": 3.82}]}, {"smiles": "O=c1cc(-c2ccc(O)c(O)c2)oc2cc(O)cc(O)c12", "note": "[Compound 2, luteolin]", "values": [{"measurement": "IC50 of COX-2", "setting": "[1]", "value": "I.A."}, {"measurement": "IC50 of COX-1", "setting": "[2]; [4]", "value": "I.A.^b"}]}, {"smiles": "O=c1c(O[C@@H]2O[C@H](CO)[C@@H](O)[C@H](O)[C@H]2O)c(-c2ccc(O)c(O)c2)oc2cc(O)cc(O)c12", "note": "[Compound 3, isoquercitrin]", "values": [{"measurement": "pIC50", "setting": "[2]", "value": 3.99}]}, {"smiles": "COc1ccc2c(=O)cc(-c3ccccc3)oc2c1", "note": "[Compound 4, 7-methoxyflavone]", "values": [{"measurement": "pIC50", "setting": "[1]", "value": 3.77}, {"measurement": "pIC50", "setting": "[2]; [3]", "value": 4.00}]}, {"smiles": "O=c1cc(-c2ccc(O)c(O)c2)oc2cc(O[C@@H]3O[C@H](CO)[C@@H](O)[C@H](O)[C@H]3O)cc(O)c12", "note": "[Compound 5, luteolin 7-O-glucoside]", "values": [{"measurement": "pIC50", "setting": "[1]", "value": 4.41}, {"measurement": "inhibitory effect on COX-2 (in words)", "setting": "[1]", "value": "potent inhibitory effect"}, {"measurement": "pIC50", "setting": "[2]; [3]", "value": 4.03}]}, {"smiles": "O=c1cc(-c2ccc(O)cc2)oc2cc(O)ccc12", "note": "[Compound 6, 4',7-dihydroxyflavone]", "values": [{"measurement": "pIC50", "setting": "[1]", "value": 4.23}, {"measurement": "inhibitory effect on COX-2 (in words)", "setting": "[1]", "value": "potent inhibitory effect"}, {"measurement": "IC50 of COX-1", "setting": "[2]; [4]", "value": "I.A."}]}, {"smiles": "COc1cc(O)cc(OC)c1OC1OC(CO)C(O)C(O)C1O", "note": "(stereo not drawn) [Compound 7, leonuriside A]", "values": [{"measurement": "pIC50", "setting": "[1]", "value": 3.70}, {"measurement": "pIC50", "setting": "[2]; [3]", "value": 3.71}]}, {"smiles": "CC(=O)c1ccc(OC2OC(CO)C(O)C(O)C2O)cc1", "note": "(stereo not drawn) [Compound 8, piceoside]", "values": [{"measurement": "IC50 of COX-2", "setting": "[1]", "value": "I.A."}, {"measurement": "pIC50", "setting": "[2]; [3]", "value": 3.66}]}]}
